Key:
[1] = system: neuronal cells dissociated from brains of 14-16 days rat embryos; assay: Rat embryonic brain cells cultured in enriched HA-LN-gel with antioxidants / protective agents; assay type: cell-based; details: for most effective dose: agent added to enriched HA-LN-gel before culturing the cells, AA tested at 1 mM, 330 μM, 100 μM, NAC at 0.1, 1, 10 μM; for neuronal sprouting: first 24-48 hours of culture in the enriched gel, versus untreated control cultures
Method: Neuronal cells were manually dissociated from brains of 14-16 days rat embryos. Cells were embedded in the HA-LN-gel, which was enriched as described herein above. NAC and AA were obtained from SIGMA (Cat. No. 616-91-1 and […]; Lot 108H00575 and 096H02811, respectively). Pifithrin-α, cyclic (Calbiochem, Cat No. 506134, lot:B41595) is a very stable analog of pifithrin-α, with reduced cytotoxicity. NAC, AA and Pifithrin-α cyclic were added to the HA-LN-gel (enriched with neural growth factors) prior to culturing of cells. Culture medium was changed twice a week. All the experiments contained control cultures (without treatment of NAC or AA or Pifithrin-α. 5-7 experiments were performed in 12 wells, in triplicates. Dissociated brain cells were attached to DE53 cylindrical, positively charged microcarriers (MCs), and suspended in brain medium for 4-17 days ([…] 1990 Methods in Neur 2:195-209). The floating cell-MC aggregates were transferred (using fine spatula, under a stereo microscope) into HA-LN-gel enriched with the indicated growth factors or Antioxidants. During one month of daily observations the following differences (which were more pronounced in the stationary MC-cultures) were observed: […]

[2] = system: Endothelial cells (HUVEC); assay: Attachment and growth of endothelial cells on or in substrates and milieus; assay type: cell-based
Method: In order to test the ability of HA-LN-gel to support the attachment and growth of endothelial cells, several experiments were conducted:
Endothelial cells (HE4 split #1), grown on gelatin, were collected by 0.25% trypsin-EDTA digestion. HUVEC were counted and 1.35×10^6 cells were divided into treatment groups. The cells were seeded in triplicates into 12-well plates at a concentration of 50,000 cells per well. The treatment groups were as follows: • 1. Cells seeded on the plastic • 2. Cells seeded on gelatin coating • 3. Cells seeded on HA (1 ml)+medium (0.5 ml) coating. Each well was coated with ˜0.2 ml • 4. Cells (150,000) seeded in HA (1 ml)+medium (0.5 ml). 0.5 ml per well. • 5. Cells seeded on gelatin and after attachment (24 hours) covered with HA+medium (as above, coated with 0.5 ml per well) • 6. Cells seeded on Laminin coating • 7. Cells seeded on HA-LN-gel coating (0.9 ml HA, 0.1 ml Laminin, 0.4 ml medium). Coating was with ˜0.2 ml per well • 8. Cells (150,000) seeded in HA-LN-gel (as in g) • 9. Cells seeded on gelatin and after attachment (24 hours) covered with HA-LN-gel (as in g above)
The morphology of the seeded cells was monitored microscopically every day.
Therefore the above experiment was repeated using 10% of the laminin concentration. Endothelial were seeded in 12 well plates in triplicates (50000 cell/well) as follows: • 1. Cells on gelatin coating as control. • 2. Cells on HA-LN-gel (10% of the usual concentration of laminin) coating. • 3. Cells in HA-LN-gel (10% of the usual concentration of laminin) • 4. Higher concentration of cells (100,000/well) in HA-LN-gel (10% of the usual concentration of laminin).

Row | Compound | effectiveness of the tested concentrations ([1]; 1 mM, 330 μM or 100 μM applied to the cell cultures) | most effective dose [1] [µM] | neuronal sprouting [1] | effectiveness compared between concentrations ([1]; 100 and 200 nM versus 2 μM) | morphology and attachment of cells seeded on the coating ([2]; 50,000 cells per well, 12-well plates, usual laminin concentration, monitored microscopically every day) | toxicity to endothelial cells as substrate coating ([2]; cells seeded on the coating) | toxic effects on EC, overall finding of first experiment ([2]; laminin alone or as a component of the HA-LN-gel, at the concentration examined)
1 | O=C1O[C@H]([C@@H](O)CO)C(O)=C1O [Ascorbic acid] | effective | 330 | stimulated intensive sprouting |  |  |  | 
2 | CC(=O)N[C@@H](CS)C(=O)O [N-acetyl-L-cysteine] |  | 10 | stimulated intensive sprouting |  |  |  | 
3 | Cc1ccc(-c2cn3c4c(sc3n2)CCCC4)cc1 [Pifithrin-α, cyclic] |  |  | stimulated intensive sprouting | more effective |  |  | 
4 | laminin: adhesive glycoprotein; Murine LN-1 obtained from Sigma |  |  |  |  | appeared round and did not attach well to the substrate | toxic | some toxic effects
